The assay addresses T1, purified recombinant human islet GK (Homo sapiens, UniProt P35557).
T1 construct: (His)6; made in house; host or cells: E. coli
T1 sequence (P35557 1-465): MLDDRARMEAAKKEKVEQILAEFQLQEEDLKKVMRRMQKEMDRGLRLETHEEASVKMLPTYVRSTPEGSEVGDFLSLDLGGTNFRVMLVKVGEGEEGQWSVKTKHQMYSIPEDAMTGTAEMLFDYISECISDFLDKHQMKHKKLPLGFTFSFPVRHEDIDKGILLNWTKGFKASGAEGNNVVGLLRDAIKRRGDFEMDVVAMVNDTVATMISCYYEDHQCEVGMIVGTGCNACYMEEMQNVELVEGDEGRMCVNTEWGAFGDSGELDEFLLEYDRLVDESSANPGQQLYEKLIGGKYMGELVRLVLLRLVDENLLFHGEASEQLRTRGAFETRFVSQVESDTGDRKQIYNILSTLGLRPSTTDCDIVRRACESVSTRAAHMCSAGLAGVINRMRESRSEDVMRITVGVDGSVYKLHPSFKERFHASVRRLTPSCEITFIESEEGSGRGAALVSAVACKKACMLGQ
The experiment in a line: Enzymatic coupled glucokinase (GK) assay (NADH production, absorbance at 340 nm). Format: biochemical. The note with it: concentration of activator that produced 50% of maximum increase in the activity of GK; at 10 mM glucose. From the text:
An enzymatic coupled glucokinase (GK) assay using purified recombinant human islet GK was used to evaluate effects of the activators. In this assay, GK catalyzes glucose phosphorylation in the presence of ATP. The product of this reaction, glucose-6-phosphate, is then oxidized by an excess of glucose-6-dehydrogenase to produce gluconate-6-phosphate with concomitant reduction of NAD^+ to NADH (Davidson and Arion, 1987). The following outlines the two reactions involved: • Glucose+ATP→Glucose-6-P+ADP (Glucokinase) • Glucose-6-P+NAD→Gluconate-6-P+NADH (glucose-6-P dehydrogenase)
The NADH production detected by absorbance at 340 nm is used to monitor the enzymatic activity.
The human islet GK isoform was expressed in E. coli as (His)6-tagged fusion protein and purified with metal chelate affinity chromatography (Tiedge et al., 1997). After purification the enzyme was stored in aliquots at concentration 0.8 mg/ml in 25 mM NaH2PO4, 150 mM NaCl, 100 mM imidazole, 1 mM DTT, 50% glycerol at −80° C.
The assay was performed in flat bottom 96-well plates in a final incubation volume of 100 μl. The incubation mixture consisted of 25 mM HEPES (pH7.4), 50 mM KCl, 2.5 mM MgCl2, 2 mM dithiothreitol, 4 U/ml glucose-6-phosphate dehydrogenase from Leuconostoc mesenteroides, 5 mM ATP, 1 mM NAD and 10 mM glucose. All reagents were from Sigma-Aldrich Co. (St. Louis, Mo.). Test compounds were dissolved in DMSO and then added to the reaction mixture giving the final DMSO concentration of 10%.
The reaction was initiated by addition of 20 μl GK and run for 20 min at 37° C. The amount of formed NADH was measured as an increase in absorbance at 340 nm using a microplate reader.
The concentration of activator that produced 50% of maximum increase in the activity of GK (EC50) was calculated.
With `COc1ccc([C@@]2(C(=O)Nc3nccs3)C[C@H]2C2CCCCC2)cc1` (racemic) [Example 48, (±)-(E)-[2-Cyclohexyl-1-(4-methoxy-phenyl)-cyclopropanecarboxylic acid thiazol-2-ylamide]], the half-maximal effective concentration (EC50) is 8.69 µM. For `CC(C)C[C@@H]1C[C@]1(C(=O)Nc1nccs1)c1ccc(S(C)(=O)=O)cc1` (racemic) [Example 3, (±)-(E)-2-Isobutyl-1-(4-methanesulfonyl-phenyl)-cyclopropanecarboxylic acid thiazol-2-ylamide] the value was 5.46 µM; for `Cc1cnc(NC(=O)[C@]2(c3ccc(S(C)(=O)=O)cc3)C[C@H]2C2CCCCC2)s1` (racemic) [Example 77, (±)-(E)-2-Cyclohexyl-1-(4-methanesulfonyl-phenyl)-cyclopropanecarboxylic acid (5-methyl-thiazol-2-yl)-amide], 0.39 µM.

Turning to `CS(=O)(=O)c1ccc([C@@]2(C(=O)Nc3nccs3)C[C@H]2C2CCCCC2)cc1` (single isomer, unassigned) [55 (Isomer 1)], the concentration giving a half-maximal response (EC50) is 0.15 µM. For `CC(=O)Nc1ccc([C@@]2(C(=O)Nc3nccs3)C[C@H]2C2CCCCC2)cc1` (racemic) [Example 51, (±)-(E)-1-(4-Acetylamino-phenyl)-2-cyclohexyl-cyclopropanecarboxylic acid thiazol-2-ylamide] the value was 10.5 µM; for `CCN(CC)CCCS(=O)(=O)c1ccc([C@@]2(C(=O)Nc3nccs3)C[C@H]2C2CCCCC2)cc1` (racemic) [Example 7, (±)-(E)-2-Cyclohexyl-1-[4-(3-diethylamino-propane-1-sulfonyl)-phenyl]-cyclopropanecarboxylic acid thiazol-2-ylamide], 0.7 µM. Next, `O=C(Nc1nccs1)[C@]1(c2ccc(S(=O)(=O)NCCc3ccccn3)cc2)C[C@H]1C1CCCC1` (single isomer, unassigned) [Example 26, (E)-2-Cyclopentyl-1-[4-(2-pyridin-2-yl-ethylsulfamoyl)-phenyl]-cyclopropanecarboxylic acid thiazol-2-ylamide]: 0.36 µM; `CS(=O)(=O)c1ccc(C2(C(=O)Nc3nccs3)C(C3CCCCC3)C2(F)F)cc1` (single isomer, unassigned) [63 (Isomer 2), (±)-(E)-3-Cyclohexyl-2,2-difluoro-1-(4-methanesulfonyl-phenyl)-cyclopropanecarboxylic acid thiazol-2-ylamide]: 5.3 µM. Next, `COC(=O)c1ccc([C@@]2(C(=O)Nc3nccs3)C[C@H]2C2CCCC2)cc1` (racemic) [Example 73, (±)-(E)-4-[2-Cyclopentyl-1-(thiazol-2-ylcarbamoyl)-cyclopropyl]-benzoic acid methyl ester]: 3.66 µM. Turning to `CS(=O)(=O)c1ccc([C@@]2(C(=O)Nc3nccs3)C[C@H]2CC2CCCCC2)cc1` (racemic) [Example 2, (±)-(E)-2-Cyclohexylmethyl-1-(4-methanesulfonyl-phenyl)-cyclopropanecarboxylic acid thiazol-2-ylamide], the concentration giving a half-maximal response (EC50) is 1.18 µM.

In the case of `Cc1cc(NC(=O)[C@]2(c3ccc(S(C)(=O)=O)cc3)C[C@H]2C2CCCC2)no1` (racemic) [Example 13, (±)-(E)-2-Cyclopentyl-1-(4-methanesulfonyl-phenyl)-cyclopropanecarboxylic acid (5-methyl-isoxazol-3-yl)-amide], the EC50 was 12.7 µM. Consider `CNC(=O)c1ccc([C@@]2(C(=O)Nc3nccs3)C[C@H]2C2CCCCC2)cc1` (racemic) [Example 50, (±)-(E)4-[2-Cyclohexyl-1-(thiazol-2-ylcarbamoyl)-cyclopropyl]-N-methyl-benzamide], for which the EC50 was 7.61 µM.

Regarding `Cc1nnc(NC(=O)[C@]2(c3ccc(S(C)(=O)=O)cc3)C[C@H]2C2CCCC2)s1` (racemic) [Example 11, (±)-(E)-2-Cyclopentyl-1-(4-methanesulfonyl-phenyl)-cyclopropanecarboxylic acid (5-methyl-[1,3,4]thiadiazol-2-yl)-amide], the EC50 turned out to be 9.32 µM. For `CS(=O)(=O)c1csc([C@@]2(C(=O)Nc3nccs3)C[C@H]2C2CCCC2)c1` (racemic) [Example 20, (±)-(Z)-2-Cyclopentyl-1-(4-methanesulfonyl-thiophen-2-yl)-cyclopropanecarboxylic acid thiazol-2-ylamide], the concentration for a half-maximal effect (EC50) worked out at 1.9 µM. Next, `CS(=O)(=O)Nc1ccc([C@@]2(C(=O)Nc3nccs3)C[C@H]2C2CCCCC2)cc1` (racemic) [Example 52, (±)-(E)-2-Cyclohexyl-1-(4-methanesulfonylamino-phenyl)-cyclopropanecarboxylic acid thiazol-2-ylamide]: 3.82 µM. Next, `CS(=O)(=O)c1ccc([C@@]2(C(=O)Nc3nccs3)C[C@H]2C2CCCCC2)cc1C(F)(F)F` (racemic) [Example 45, (±)-(E)-2-Cyclohexyl-1-(4-methanesulfonyl-3-trifluoromethyl-phenyl)-cyclopropanecarboxylic acid thiazol-2-ylamide]: 0.16 µM; `CS(=O)(=O)c1cccc([C@@]2(C(=O)Nc3nccs3)C[C@H]2C2CCCCC2)c1` (racemic) [Example 35, (±)-(E)-2-Cyclohexyl-1-(3-methanesulfonyl-phenyl)-cyclopropanecarboxylic acid thiazol-2-ylamide]: 7.61 µM.

These data come from US7576108B2, “Substituted arylcyclopropylacetamides as glucokinase activators” (Eli Lilly and Company, priority 2003, dated 2009).
